{"source": "paper PMC467089", "about": "“Click estradiol dimers with novel aromatic bridging units: synthesis and anticancer evaluation” (Journal of Enzyme Inhibition and Medicinal Chemistry, 2024)", "key": {"[1]": {"tested_on": "CEM-DNR (daunorubicin resistant variant of CCRF-CEM)", "assay": "MTS cytotoxicity assay, CEM-DNR", "assay_type": "cell-based, human", "settings": "Homo sapiens, CEM-DNR; MTS assay, 72-h incubation, mean ± SD of 3 independent experiments; read-out: IC50 cytotoxic activity CEM-DNR", "in_short": "(§1)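 Culture medium carried 10% foetal calf serum plus antibiotics. Treatment lasted 72 h with a fourfold dilution series, followed by MTS detection, in technical duplicate across three biological replicates.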"}, "[2]": {"tested_on": "K562 (chronic myelogenous leukaemia)", "assay": "MTS cytotoxicity assay, K562", "assay_type": "cell-based", "settings": "Homo sapiens, K562; MTS assay, 72-h incubation, mean ± SD of 3 independent experiments; read-out: IC50 cytotoxic activity K562", "in_short": "(§2)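 Viability is measured by MTS after cells, seeded overnight, receive fourfold-diluted compounds for 72 h at 37 °C.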"}, "[3]": {"tested_on": "HCT116 (colorectal adenocarcinoma)", "assay": "MTS cytotoxicity assay, HCT116", "assay_type": "cell-based", "settings": "Homo sapiens, HCT-116; MTS assay, 72-h incubation, mean ± SD of 3 independent experiments; read-out: IC50 cytotoxic activity HCT116", "in_short": "as §2"}, "U2OS (osteosarcoma)": {"tested_on": "U2OS (osteosarcoma)", "assay": "MTS cytotoxicity assay, U2OS", "assay_type": "cell-based, human", "settings": "MTS assay, 72-h incubation, mean ± SD of 3 independent experiments; for IC50: Homo sapiens, U2OS, read-out: IC50 cytotoxic activity U2OS", "in_short": "as §1"}, "CCRF-CEM lymphoblasts": {"tested_on": "CCRF-CEM lymphoblasts", "assay": "BrU incorporation analysis (RNA synthesis)", "assay_type": "cell-based, human", "settings": "for RNA synthesis, BrU incorporation (in words): 1× and 5×IC50, 24 h, gated remaining live cells", "in_short": "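CCRF-CEM cells were treated with compounds for 24 h, then pulsed with 1 mM BrU for 30 min and fixed in 1% paraformaldehyde/0.05% NP-40. BrU was detected with a cross-reacting anti-BrdU antibody and FITC secondary, with propidium iodide/RNase counterstain; value is percentage of BrU-positive cells by flow cytometry.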"}, "U2OS cells": {"tested_on": "U2OS cells", "assay": "Immunofluorescence of microtubules / mitotic spindle", "assay_type": "cell-based, human", "settings": "10 µM, 24-h incubation", "text": "In addition, the presence of aster-like tubulin structures indicated the failure in microtubule elongation (Figure 4, ED5). […] The observed intracellular effects of ED3 and ED5 are consistent with data from in vitro assembly assays and cell cycle analyses, thereby strongly supporting the proposed antimitotic mechanisms of these EDs. […] Importantly, cytotoxic IC50 values may vary depending on the duration of exposure to the drug. A more extended exposure could lead to a decrease in the IC50 value, and vice versa. This temporal factor could also contribute to the observed differential sensitivity among the cell lines. The detailed mechanism and the extent to which these cellular and molecular dynamics (MD) contribute to the observed phenomenon might necessitate further investigation and experimentation.\nU2OS cells, cultivated on coverslips, underwent a PBS wash and were then fixed in a solution of 3% paraformaldehyde in a buffer containing 10 mM MES, 150 mM NaCl, 5 mM EGTA, 5 mM MgCl2, 5 mM glucose, adjusted to a pH of 6.1. The nuclei were made visible using Hoechst 33342. Subsequently, a 60-min blocking step with 5% goat serum in PBS (SpinChem, Seattle, WA) was followed by a 60-min incubation with α-tubulin (DM1A) mouse monoclonal antibody (Cell Signaling, Danvers, MA) in PBS supplemented with 1% BSA and 0.3% Triton X-100. Visualisation was achieved using Alexa Fluor-488 conjugated anti-mouse antibodies (Life Technologies, Carlsbad, CA). Between each step, the samples underwent a series of three 5-min washes with PBS. Finally, the samples were mounted using Vectashield Mounting Medium with DAPI and imaged utilising a Zeiss spinning disk confocal microscope equipped with CSU-X1 unit (Yokogawa, Musashino, Japan)[10]."}}}
{"smiles": "COc1cc(Cn2cc([C@]3(O)CC[C@H]4[C@@H]5CCc6cc(O)ccc6[C@H]5CC[C@@]43C)nn2)cc(Cn2cc([C@]3(O)CC[C@H]4[C@@H]5CCc6cc(O)ccc6[C@H]5CC[C@@]43C)nn2)c1", "note": "[ED3, (17β,17′β)-17,17′-[(5-Methoxybenzene-1,3-diyl)bis(methanediyl-1H-1,2,3-triazole-1,4-diyl)]bisestra-1,3,5(10)-triene-3,17-diol]", "values": [{"measurement": "IC50", "setting": "[1]", "result": "> 50000", "unit": "nM"}, {"measurement": "IC50", "setting": "[2]", "result": "330 ± 74", "unit": "nM"}, {"measurement": "IC50", "setting": "[3]", "result": "470 ± 22", "unit": "nM"}, {"measurement": "IC50", "setting": "U2OS (osteosarcoma)", "result": "610 ± 33", "unit": "nM"}, {"measurement": "RNA synthesis, BrU incorporation (in words)", "setting": "CCRF-CEM lymphoblasts", "result": "high rate of RNA synthesis"}, {"measurement": "BrU, % of positive cells", "setting": "CCRF-CEM lymphoblasts; 1×IC50, 24 h", "result": 68.66, "unit": "%"}, {"measurement": "BrU, % of positive cells", "setting": "CCRF-CEM lymphoblasts; 5×IC50, 24 h", "result": 60.00, "unit": "%"}, {"measurement": "microtubule organisation in mitotic cells (in words)", "setting": "U2OS cells", "result": "disruption in microtubule organisation"}]}
{"smiles": "C[C@]12CC[C@@H]3c4ccc(O)cc4CC[C@H]3[C@@H]1CC[C@@]2(O)c1cn(Cc2cc(Cn3cc([C@]4(O)CC[C@H]5[C@@H]6CCc7cc(O)ccc7[C@H]6CC[C@@]54C)nn3)cc(OCCO)c2)nn1", "note": "[ED5, (17β,17′β)-17,17′-{[5-(2-Hydroxyethoxy)benzene-1,3-diyl]bis(methanediyl-1H-1,2,3-triazole-1,4-diyl)}bisestra-1,3,5(10)-triene-3,17-diol]", "values": [{"measurement": "IC50", "setting": "[1]", "result": "> 50000", "unit": "nM"}, {"measurement": "IC50", "setting": "[2]", "result": "420 ± 44", "unit": "nM"}, {"measurement": "IC50", "setting": "[3]", "result": "2020 ± 190", "unit": "nM"}, {"measurement": "IC50", "setting": "U2OS (osteosarcoma)", "result": "> 50000", "unit": "nM"}, {"measurement": "IC50 cytotoxic activity U2OS", "setting": "U2OS (osteosarcoma)", "result": "did not exhibit activity"}, {"measurement": "RNA synthesis, BrU incorporation (in words)", "setting": "CCRF-CEM lymphoblasts", "result": "high rate of RNA synthesis"}, {"measurement": "BrU, % of positive cells", "setting": "CCRF-CEM lymphoblasts; 1×IC50, 24 h", "result": 65.14, "unit": "%"}, {"measurement": "BrU, % of positive cells", "setting": "CCRF-CEM lymphoblasts; 5×IC50, 24 h", "result": 66.40, "unit": "%"}, {"measurement": "microtubule organisation in mitotic cells (in words)", "setting": "U2OS cells", "result": "disruption in microtubule organisation"}]}
{"smiles": "C[C@]12CC[C@@H]3c4ccc(O)cc4CC[C@H]3[C@@H]1CC[C@@]2(O)c1cn(Cc2cccc(Cn3cc([C@]4(O)CC[C@H]5[C@@H]6CCc7cc(O)ccc7[C@H]6CC[C@@]54C)nn3)n2)nn1", "note": "[ED, reference compound]", "values": [{"measurement": "IC50", "setting": "[1]", "result": "> 50000", "unit": "nM"}, {"measurement": "IC50", "setting": "[2]", "result": "580 ± 230", "unit": "nM"}, {"measurement": "IC50", "setting": "[3]", "result": "950 ± 110", "unit": "nM"}, {"measurement": "IC50", "setting": "U2OS (osteosarcoma)", "result": "6230 ± 700", "unit": "nM"}, {"measurement": "BrU, % of positive cells", "setting": "CCRF-CEM lymphoblasts; 1×IC50, 24 h", "result": 34.33, "unit": "%"}, {"measurement": "BrU, % of positive cells", "setting": "CCRF-CEM lymphoblasts; 5×IC50, 24 h", "result": 15.43, "unit": "%"}, {"measurement": "microtubule organisation in mitotic cells (in words)", "setting": "U2OS cells", "result": "disruption in microtubule organisation"}]}
